In ChEMBL document CHEMBL1125017, “Potent anticonflict activity and lessening of memory impairment with a series of novel [1]benzothieno[2,3-c]pyridines and 1,2,3,4-tetrahydro[1]benzothieno[2,3-c]pyridines” (J Med Chem, 1990):

Legend:
Rattus norvegicus [1] = test: Anticonflict activity measured in male wistar rats; number of shocks received in 5 min at an intravenous dose of 10 mg/kg.; assay type: functional
Mus musculus [2] = test: Lessening of memory impairment measured in mice; time of latency in seconds at an intravenous dose of 10 mg/kg.; assay type: functional
Rattus norvegicus [3] = test: No of shocks of 5 min was reported after oral administration of a dose of 20 mg/kg; assay type: functional
Mus musculus [4] = test: No. of mice showing anti-amnesic activity after oral administration of a dose of 5 mg/kg; Number of mice which prolonged latency more than twice the duration of mice administered Scopolamine singly/number of mice tested 4/8; assay type: functional
Mus musculus [5] = test: No. of mice showing anti-amnesic activity after oral administration of a dose of 20 mg/kg; Number of mice which prolonged latency more than twice the duration of mice administered Scopolamine singly/number of mice tested 4/8; assay type: functional
Mus musculus [6] = test: Latency step was determined after oral administration of a dose of 5 mg/kg in 8 mice; assay type: functional
Rattus norvegicus [7] = test: No. rats showing anticonflict activity after oral administration of a dose of 40 mg/kg; Number of rats which received shocks more than twice vs shocks received in control rats to that of number of rats tested 4/7; assay type: functional
Mus musculus [8] = test: Latency step was determined after oral administration of a dose of 20 mg/kg in 8 mice.; assay type: functional
Rattus norvegicus [9] = test: No. rats showing anticonflict activity after oral administration of a dose of 20 mg/kg; Number of rats which received shocks more than twice vs shocks received in control rats to that of number of rats tested 2/8; assay type: functional
Mus musculus [10] = test: No. of mice showing anti-amnesic activity after oral administration of a dose of 40 mg/kg; Number of mice which prolonged latency more than twice the duration of mice administered Scopolamine singly/number of mice tested 6/8; assay type: functional
Mus musculus [11] = test: Latency step was determined after oral administration of a dose of 40 mg/kg in 8 mice.; assay type: functional
Rattus norvegicus [12] = test: No of shocks of 5 min was reported after oral administration of a dose of 40 mg/kg; assay type: functional
Rattus norvegicus [13] = test: No of shocks of 5 min was reported after oral administration of a dose of 20 mg/kg in 10 rats; assay type: functional
Rattus norvegicus [14] = test: No of shocks of 5 min was reported after oral administration of a dose of 5 mg/kg in 10 rats; assay type: functional
Rattus norvegicus [15] = test: No. rats showing anticonflict activity after oral administration of a dose of 20 mg/kg; Number of rats which received shocks more than twice vs shocks received in control rats to that of number of rats tested 6/10; assay type: functional
Mus musculus [16] = test: Number of mice showing anti-amnesic activity after oral administration of a dose of 5 mg/kg; Number of mice which prolonged latency more than twice the duration of mice administered Scopolamine singly/number of mice tested 2/8; assay type: functional
Rattus norvegicus [17] = test: No. rats showing anticonflict activity after oral administration of a dose of 40 mg/kg; Number of rats which received shocks more than twice vs shocks received in control rats to that of number of rats tested 8/10; assay type: functional
Mus musculus [18] = test: […] activity after oral administration of a dose of 40 mg/kg; Number of mice which prolonged latency more than twice the duration of mice administered Scopolamine singly/number of mice tested 6/8; assay type: functional
Rattus norvegicus [19] = test: No. rats showing anticonflict activity after oral administration of a dose of 5 mg/kg; Number of rats which received shocks more than twice vs shocks received in control rats to that of number of rats tested 3/10; assay type: functional
Mus musculus [20] = test: Latency step was determined after oral administration of a dose of 20 mg/kg in 8 mice; assay type: functional
Mus musculus [21] = test: Latency step was determined after oral administration of a dose of 40 mg/kg in 8 mice; assay type: functional
[22] = molecular target: GABA-A receptor; anion channel; test: Inhibition of [3H]flunitrazepam binding to GABA-A Benzodiazepine receptor of Wistar rat cerebral cortex; assay type: tissue-based
Rattus norvegicus [23] = test: No of shocks of 5 min was reported after oral administration of a dose of 40 mg/kg in 9 rats; assay type: functional
Mus musculus [24] = test: No. rats showing anticonflict activity after oral administration of a dose of 20 mg/kg; Number of mice which prolonged latency more than twice the duration of mice administered Scopolamine singly/number of mice tested 4/8; assay type: functional
[25] = molecular target: T1, 5-hydroxytryptamine receptor 1A (Rattus norvegicus, UniProt P19327); test: Binding affinity towards 5-hydroxytryptamine 1A receptor in rat brain; assay type: tissue-based
T1 sequence (P19327 whole entry): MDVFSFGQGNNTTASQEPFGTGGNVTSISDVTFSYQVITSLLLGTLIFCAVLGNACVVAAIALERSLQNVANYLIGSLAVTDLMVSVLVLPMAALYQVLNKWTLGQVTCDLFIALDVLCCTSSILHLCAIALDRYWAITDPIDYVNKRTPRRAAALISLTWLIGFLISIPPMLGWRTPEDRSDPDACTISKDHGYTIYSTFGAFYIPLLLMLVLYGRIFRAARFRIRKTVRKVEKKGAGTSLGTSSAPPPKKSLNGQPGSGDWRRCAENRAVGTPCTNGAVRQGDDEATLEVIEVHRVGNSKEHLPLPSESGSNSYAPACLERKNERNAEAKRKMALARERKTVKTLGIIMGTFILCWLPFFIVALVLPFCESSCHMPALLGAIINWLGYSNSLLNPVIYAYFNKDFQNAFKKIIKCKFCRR

Mus musculus [26] = test: […] activity after oral administration of a dose of 5 mg/kg; Number of mice which prolonged latency more than twice the duration of mice administered Scopolamine singly/number of mice tested 1/8; assay type: functional
Rattus norvegicus [27] = test: No. rats showing anticonflict activity after oral administration of a dose of 20 mg/kg; Number of rats which received shocks more than twice vs shocks received in control rats to that of number of rats tested 5/10; assay type: functional
Rattus norvegicus [28] = test: No. rats showing anticonflict activity after oral administration of a dose of 40 mg/kg; Number of rats which received shocks more than twice vs shocks received in control rats to that of number of rats tested 6/9; assay type: functional
Mus musculus [29] = test: No. rats showing anticonflict activity after oral administration of a dose of 20 mg/kg; Number of mice which prolonged latency more than twice the duration of mice administered Scopolamine singly/number of mice tested 3/8; assay type: functional
Rattus norvegicus [30] = test: Anticonflict activity was measured in male wistar rats; number of shocks received in 5 min at a dose of 3 mg/kg ip; assay type: functional; conditions: route intraperitoneal
Rattus norvegicus [31] = test: No. rats showing anticonflict activity after oral administration of a dose of 10 mg/kg; Number of rats which received shocks more than twice vs shocks received in control rats to that of number of rats tested 25/43; assay type: functional
Rattus norvegicus [32] = test: No of shocks of 5 min was reported after oral administration of a dose of 5 mg/kg in 43 rats; 25/43; assay type: functional
Mus musculus [33] = test: […] activity after oral administration of a dose of 5 mg/kg in mice; Number of mice which prolonged latency more than twice the duration of mice administered Scopolamine singly/number of mice tested 1/10; assay type: functional

Which results are given for `CCCNC(=O)c1cc2c(cn1)sc1ccccc12`?
Activity (Rattus norvegicus [1]): 17.3; Activity (Mus musculus [2]): 42

Which results are given for `Cl.NCCNC(=O)c1cc2c(cn1)sc1ccccc12`?
No. of shocks (Rattus norvegicus [3]): 9.3; Antiamnesic activity (Mus musculus [4]): 4; Antiamnesic activity (Mus musculus [5]): 4; Activity (Mus musculus [6]): 65.5; Anticonflict activity (Rattus norvegicus [7]): 4; Activity (Rattus norvegicus [1]): 37.2; Activity (Mus musculus [8]): 106.7; Anticonflict activity (Rattus norvegicus [9]): 2; Activity (Mus musculus [2]): 103.9; Antiamnesic activity (Mus musculus [10]): 6; Activity (Mus musculus [11]): 125.1; No. of shocks (Rattus norvegicus [12]): 22

For `Cl.NCCCNC(=O)c1cc2c(cn1)sc1ccccc12`, which Activity (Rattus norvegicus [1]) is on record?
The Activity was 15.2.

And the Activity (Mus musculus [2])?
The Activity was 37.7.

How did the No. of shocks (Rattus norvegicus [13]) turn out when `CCOC(=O)C1Cc2c(sc3ccccc23)CN1` (stereo not given) was run?
The No. of shocks was 29.3.

And the No. of shocks (Rattus norvegicus [14])?
Its No. of shocks is 16.1.

What about the Anticonflict activity (Rattus norvegicus [15]) of the same molecule?
The Anticonflict activity was 6.

And the Antiamnesic activity (Mus musculus [16])?
Its Antiamnesic activity is 2.

And the Anticonflict activity (Rattus norvegicus [17])?
Its Anticonflict activity is 8.

And the Antiamnesic activity (Mus musculus [18])?
Its Antiamnesic activity is 6.

What about the Activity (Mus musculus [6]) of the same molecule?
Its Activity is 68.8.

What about the Anticonflict activity (Rattus norvegicus [19]) of the same molecule?
The Anticonflict activity was 3.

What about the Activity (Mus musculus [20]) of the same molecule?
Its Activity is 110.1.

And the Activity (Mus musculus [21])?
Its Activity is 129.9.

What about the Activity (Rattus norvegicus [1]) of the same molecule?
Its Activity is 27.2.

And the IC50 [22]?
Its IC50 is 1500 µM.

And the No. of shocks (Rattus norvegicus [23])?
The No. of shocks was 30.2.

What about the Activity (Mus musculus [2]) of the same molecule?
Its Activity is 90.5.

And the Antiamnesic activity (Mus musculus [24])?
Its Antiamnesic activity is 4.

What does the source list for `CCCOC(=O)c1cc2c(cn1)sc1ccccc12`?
Activity (Rattus norvegicus [1]): 9.6; IC50 [22]: 1530 µM; Activity (Mus musculus [2]): 22.1

For `Cl.O=C(c1cc2c(cn1)sc1ccccc12)N1CCCN(Cc2ccc(Cl)cc2)CC1`, which Activity (Rattus norvegicus [1]) is on record?
The Activity was 12.8.

And the Activity (Mus musculus [2])?
The Activity was 34.7.

Which No. of shocks (Rattus norvegicus [13]) does the source give for `O=C(NC1CCCCC1)C1Cc2c(sc3ccccc23)CN1` (stereo not given) here?
Its No. of shocks is 28.1.

And the Ki [25]?
Its Ki is 0.28 µM.

And the No. of shocks (Rattus norvegicus [14])?
Its No. of shocks is 15.5.

What about the Activity (Mus musculus [6]) of the same molecule?
Its Activity is 67.5.

And the Anticonflict activity (Rattus norvegicus [19])?
The Anticonflict activity was 3.

And the Activity (Mus musculus [20])?
The Activity was 85.

And the Activity (Rattus norvegicus [1])?
Its Activity is 36.9.

What about the Antiamnesic activity (Mus musculus [26]) of the same molecule?
Its Antiamnesic activity is 1.

And the IC50 [22]?
Its IC50 is 1600 µM.

And the Anticonflict activity (Rattus norvegicus [27])?
The Anticonflict activity was 5.

What about the No. of shocks (Rattus norvegicus [23]) of the same molecule?
The No. of shocks was 26.9.

And the Anticonflict activity (Rattus norvegicus [28])?
The Anticonflict activity was 6.

And the Antiamnesic activity (Mus musculus [29])?
The Antiamnesic activity was 3.

And the Activity (Mus musculus [2])?
The Activity was 120.4.

How did the Activity (Rattus norvegicus [30]) turn out when `CN1C(=O)CN=C(c2ccccc2)c2cc(Cl)ccc21` [DIAZEPAM] was run?
The Activity was 39.4.

What about the Anticonflict activity (Rattus norvegicus [31]) of the same molecule?
The Anticonflict activity was 25.

And the No. of shocks (Rattus norvegicus [32])?
Its No. of shocks is 22.7.

And the Antiamnesic activity (Mus musculus [33])?
The Antiamnesic activity was 1.

Which results are given for `CCCCCCNC(=O)c1cc2c(cn1)sc1ccccc12`?
Activity (Rattus norvegicus [1]): 10.5; Activity (Mus musculus [2]): 62.3

With `CCOC(=O)C1Cc2c(sc3ccccc23)CN1C(C)=O` (stereo not given) as the molecule, how does the Activity (Mus musculus [2]) read?
The Activity was 37.3.

With `COC(=O)c1cc2c(cn1)sc1ccccc12` as the molecule, how does the Activity (Rattus norvegicus [1]) read?
The Activity was 8.5.

What about the Activity (Mus musculus [2]) of the same molecule?
The Activity was 31.6.

How did the Activity (Rattus norvegicus [1]) turn out when `Cl.O=C(c1cc2c(cn1)sc1ccccc12)N1CCCNCC1` was run?
Its Activity is 21.8.

And the Activity (Mus musculus [2])?
The Activity was 38.9.

Which results are given for `O=C(O)c1cc2c(cn1)sc1ccccc12`?
Activity (Rattus norvegicus [1]): 4; Activity (Mus musculus [2]): 55.8

What does the source list for `CCOC(=O)c1cc2c(cn1)sc1ccccc12`?
Activity (Rattus norvegicus [1]): 10.7; Activity (Mus musculus [2]): 11.3

With `Cl.NCC(=O)N1CCCN(C(=O)c2cc3c(cn2)sc2ccccc23)CC1` as the molecule, how does the Activity (Rattus norvegicus [1]) read?
The Activity was 14.1.

Which Activity (Rattus norvegicus [1]) does the source give for `CCOC(=O)C1Cc2c(sc3ccccc23)CN1C(=O)c1ccccc1` (stereo not given) here?
The Activity was 6.3.

What about the Activity (Mus musculus [2]) of the same molecule?
The Activity was 35.1.

Which results are given for `CC1CN(C(=O)c2cc3c(cn2)sc2ccccc23)CCN1.Cl` (stereo not given)?
Activity (Rattus norvegicus [1]): 7.6; Activity (Mus musculus [2]): 40.3
